Target: acetylcholinesterase (AChE)
Assay: AChE activity in crude mite homogenate supernatant, acetylthiocholine/DTNB assay at […] nm
Type: biochemical, Psoroptes cuniculi

SMILES | IC50 (ppm)
O=C1C=CC(=O)c2c(O)cccc21 [compound 1, Juglone] | 14.81 ppm
CC1=CC(=O)c2c(O)cccc2C1=O [compound 2, Plumbagin] | 29.87 ppm
